This assay deals with hQC (Homo sapiens (Human), UniProt Q16769). Put plainly: QC inhibitor assay (hQC inhibition, IC50 and Ki determination). Particulars: for Ki: competitive inhibition fit. It counts as biochemical. As to the method:
All measurements were performed with a BioAssay Reader HTS-7000Plus for microplates (Perkin Elmer) at 30° C. QC activity was evaluated fluorometrically using H-Gln-βNA. The samples consisted of 0.2 mM fluorogenic substrate, 0.25 U pyroglutamyl aminopeptidase (Unizyme, Hørsholm, Denmark) in 0.2 M Tris/HCl, pH 8.0 containing 20 mM EDTA and an appropriately diluted aliquot of QC in a final volume of 250 μl. Excitation/emission wavelengths were 320/410 nm. The assay reactions were initiated by addition of glutaminyl cyclase. QC activity was determined from a standard curve of β-naphthylamine under assay conditions. One unit is defined as the amount of QC catalyzing the formation of 1 μmol pGlu-βNA from H-Gln-βNA per minute under the described conditions.
In a second fluorometric assay, QC was activity determined using H-Gln-AMC as substrate. Reactions were carried out at 30° C. utilizing the NOVOStar reader for microplates (BMG labtechnologies). The samples consisted of varying concentrations of the fluorogenic substrate, 0.1 U pyroglutamyl aminopeptidase (Qiagen) in 0.05 M Tris/HCl, pH 8.0 containing 5 mM EDTA and an appropriately diluted aliquot of QC in a final volume of 250 μl. Excitation/emission wavelengths were 380/460 nm. The assay reactions were initiated by addition of glutaminyl cyclase. QC activity was determined from a standard curve of 7-amino-4-methylcoumarin under assay conditions. The kinetic data were evaluated using GraFit software.
This novel assay was used to determine the kinetic parameters for most of the QC substrates. […] Samples consisted of the respective QC substrate, 0.3 mM NADH, 14 mM α-Ketoglutaric acid and 30 U/ml glutamate dehydrogenase in a final volume of 250 μl. Reactions were started by addition of QC and perused by monitoring of the decrease in absorbance at 340 nm for 8-15 min.
The initial velocities were evaluated and the enzymatic activity was determined from a standard curve of ammonia under assay conditions. All samples were measured at 30° C., using either the […]luor Plus or the Sunrise (both from TECAN) reader for microplates. Kinetic data was evaluated using GraFit software.
For inhibitor testing, the sample composition was the same as described above, except of the putative inhibitory compound added. For a rapid test of QC-inhibition, samples contained 4 mM of the respective inhibitor and a substrate concentration at 1 KM. For detailed investigations of the inhibition and determination of Ki-values, influence of the inhibitor on the auxiliary enzymes was investigated first. […] The inhibitory constant was evaluated by fitting the set of progress curves to the general equation for competitive inhibition using GraFit software.

Sequence of hQC (Q16769 29-361): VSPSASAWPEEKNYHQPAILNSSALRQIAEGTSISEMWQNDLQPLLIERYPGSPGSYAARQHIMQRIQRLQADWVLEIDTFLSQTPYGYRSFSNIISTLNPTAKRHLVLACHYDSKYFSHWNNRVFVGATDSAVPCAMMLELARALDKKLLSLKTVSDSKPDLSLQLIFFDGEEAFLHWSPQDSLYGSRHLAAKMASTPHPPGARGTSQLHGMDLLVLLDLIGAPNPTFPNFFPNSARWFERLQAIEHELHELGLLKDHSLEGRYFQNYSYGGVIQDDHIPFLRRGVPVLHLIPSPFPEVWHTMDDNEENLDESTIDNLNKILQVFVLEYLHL

`COc1ccc(Cn2cnnc2-c2ccc3[nH]cnc3c2)cc1` [Example 8, 5-(4-(4-Methoxybenzyl)-4H-1,2,4-triazol-3-yl)-1H-benzo[d]imidazole]: it took 640 nM to reach half-maximal inhibition (IC50) and the Ki was 110 nM.

Take `Clc1ccccc1Cn1cnnc1-c1ccc2[nH]cnc2c1` [Example 9, 5-(4-(2-Chlorobenzyl)-4H-1,2,4-triazol-3-yl)-1H-benzo[d]imidazole]: the IC50 came to 760 nM and the Ki is 200 nM.

`c1ccc(Oc2ccc(Cn3cnnc3-c3ccc4[nH]cnc4c3)cc2)cc1` [Example 10, 5-(4-(4-phenoxybenzyl)-4H-1,2,4-triazol-3-yl)-1H-benzo[d]imidazole] returned an IC50 of 480 nM and a Ki of 80 nM.

Take `Clc1cccc(Cn2cnnc2-c2ccc3[nH]cnc3c2)c1Cl` [Example 22, 5-(4-(2,3-Dichlorobenzyl)-4H-1,2,4-triazol-3-yl)-1H-benzo[d]imidazole]: it took 520 nM to reach half-maximal inhibition (IC50) and the Ki is 120 nM.

Compound `COc1ccc(Cn2cnnc2-c2ccc3[nH]cnc3c2)cc1Cl` [Example 24, 5-(4-(3-Chloro-4-methoxybenzyl)-4H-1,2,4-triazol-3-yl)-1H-benzo[d]imidazole] returned an IC50 of 850 nM and a Ki of 230 nM.

Compound `COc1ccc(CCc2nnc(-c3ccc4[nH]cnc4c3)o2)cc1Cl` [Example 39, 5-(5-(3-Chloro-4-methoxyphenethyl)-1,3,4-oxadiazol-2-yl)-1H-benzo[d]imidazole] registered an IC50 of 800 nM and a Ki of 130 nM.

In turn, `CSc1ccc(CCc2nnc(-c3ccc4[nH]cnc4c3)s2)cc1` [Example 50, 5-(5-(4-(Methylthio)phenethyl)-1,3,4-thiadiazol-2-yl)-1H-benzo[d]imidazole] showed an IC50 of 760 nM and a Ki of 80 nM.

`COc1ccc(CCc2nnc(-c3ccc4[nH]cnc4c3)s2)cc1Cl` [Example 52, 5-(5-(3-Chloro-4-methoxyphenethyl)-1,3,4-thiadiazol-2-yl)-1H-benzo[d]imidazole] had a concentration for half-maximal inhibition (IC50) of 680 nM and a Ki of 50 nM.

In the case of `COc1cc(CCc2nnc(-c3ccc4[nH]cnc4c3)s2)cc(OC)c1OC` [Example 55, 5-(5-(3,4,5-Trimethoxyphenethyl)-1,3,4-thiadiazol-2-yl)-1H-benzo[d]imidazole], it took 490 nM to reach half-maximal inhibition (IC50) and the Ki was found to be 80 nM.

In the case of `Fc1ccc(CCc2nnc(-c3ccc4[nH]cnc4c3)s2)cc1F` [Example 58, 5-(5-(3,4-Difluorophenethyl)-1,3,4-thiadiazol-2-yl)-1H-benzo[d]imidazole], half-maximal inhibition (IC50) required 720 nM and the Ki was 140 nM.

For the compound `Fc1cccc(CCc2nnc(-c3ccc4[nH]cnc4c3)s2)c1` [Example 59, 5-(5-(3-fluorophenethyl)-1,3,4-thiadiazol-2-yl)-1H-benzo[d]imidazole], the IC50 was determined as 560 nM and the affinity corresponds to a Ki of 120 nM.

In turn, `COc1cccc(CCc2nnc(-c3ccc4[nH]cnc4c3)s2)c1` [Example 60, 5-(5-(3-Methoxyphenethyl)-1,3,4-thiadiazol-2-yl)-1H-benzo[d]imidazole] had an IC50 of 450 nM and a Ki of 40 nM.

For `COc1ccccc1CCc1nnc(-c2ccc3[nH]cnc3c2)s1` [Example 61, 5-(5-(2-Methoxyphenethyl)-1,3,4-thiadiazol-2-yl)-1H-benzo[d]imidazole], the IC50 amounted to 760 nM and the Ki was 170 nM.

Take `COc1ccc(OC)c(CCc2nnc(-c3ccc4[nH]cnc4c3)s2)c1` [Example 62, 5-(5-(2,5-Dimethoxyphenethyl)-1,3,4-thiadiazol-2-yl)-1H-benzo[d]imidazole]: the IC50 was 480 nM and the affinity corresponds to a Ki of 80 nM.

`COc1cccc(CCc2nnc(-c3ccc4[nH]cnc4c3)s2)c1Cl` [Example 63, 5-(5-(2-Chloro-3-methoxyphenethyl)-1,3,4-thiadiazol-2-yl)-1H-benzo[d]imidazole] came in with an IC50 of 220 nM and a Ki of 100 nM.

`c1ccc(SCc2nnc(-c3ccc4[nH]cnc4c3)s2)cc1` [Example 65, 5-(5-((Phenylthio)methyl)-1,3,4-thiadiazol-2-yl)-1H-benzo[d]imidazole] had an IC50 of 530 nM and a Ki of 120 nM.

For `c1ccc(SCn2cc(-c3ccc4[nH]cnc4c3)nn2)cc1` [Example 84, 5-(1-((Phenylthio)methyl)-1H-1,2,3-triazol-4-yl)-1H-benzo[d]imidazole], the IC50 turned out to be 570 nM and the Ki turned out to be 120 nM.
